These are literature values, as cited in patent US8796326B1, “Fire ant killer (F.A.K.)/ insecticide” (priority 2008, dated 2014).

The series deals with bacterial contamination on the hands and on treated products.

As to `Oc1cc(Cl)ccc1Oc1ccc(Cl)cc1Cl` [Triclosan, 5-chloro-2-(2,4-dichlorophenoxy)phenol], the “reducing and controlling bacterial contamination” value was “effective”.
